From patent US11180657B2, “Polysulfonated fluorescence dyes” (ATTO-TEC GmbH, priority 2017, dated 2021)
Marks after values point to notes of the source that are not given here.

Experiments:
[1] = Fluorescence maximum of the dye; type: physicochemical
Source text: (§1) Examples of the compounds according to the invention are listed in Tables 2-6, where the structures as well as the absorption and fluorescence maxima are indicated. The spectra of selected compounds are shown FIGS. 5-18.

[2] = Absorption maximum of the dye; type: physicochemical
Source text: as §1

SMILES	λfl ([1]; solvent PBS pH 7.4)	λabs ([2]; solvent PBS pH 7.4)	λfl ([1]; solvent ethanol)	λabs ([2]; solvent ethanol)
CCN1c2cc3c(cc2C(CS(=O)(=O)O)=CC1(C)C)C(c1n(C)cc[n+]1CCCCS(=O)(=O)O)=c1cc2c(cc1C3(C)C)=[N+](Cc1ccc(S(=O)(=O)O)cc1S(=O)(=O)O)CCC2 [Compound 55]	749^b nm	725^b nm	–	–
CCN1c2cc3c(cc2C(CS(=O)(=O)O)=CC1(C)C)C(c1n(C)cc[n+]1CCCC(=O)O)=c1cc2c(cc1C3(C)C)=[N+](Cc1ccc(S(=O)(=O)O)cc1S(=O)(=O)O)CCC2 [Compound 56]	746^b nm	724^b nm	–	–
Cn1cc[n+](CCCCS(=O)(=O)O)c1C1=c2cc3c(cc2C(C)(C)c2cc4c(cc21)C(CS(=O)(=O)O)=CC(C)(C)N4CCCC(=O)O)=[N+](Cc1ccc(S(=O)(=O)O)cc1S(=O)(=O)O)CCC3 [Compound 57]	749^b nm	725^b nm	–	–
CC1=CC(C)(C)N(Cc2ccc(S(=O)(=O)O)cc2)c2cc3c(cc21)C(c1n(C)cc[n+]1CCCCS(=O)(=O)O)=c1cc2c(cc1C3(C)C)=[N+](CCCC(=O)O)C(C)(C)C=C2C [Compound 58]	775^b nm	742^b nm	–	–
Cn1cc[n+](CCCCS(=O)(=O)O)c1C1=c2cc3c(cc2C(C)(C)c2cc4c(cc21)C(CS(=O)(=O)O)=CC(C)(C)N4CCS(=O)(=O)O)=[N+](CCCC(=O)O)C(C)(C)C=C3CS(=O)(=O)O [Compound 59]	771^b nm	739^b nm	–	–
Cn1cc[n+](CCCCS(=O)(=O)O)c1C1=c2cc3c(cc2C(C)(C)c2cc4c(cc21)C(CS(=O)(=O)O)=CC(C)(C)N4Cc1ccc(S(=O)(=O)O)cc1S(=O)(=O)O)=[N+](CCCC(=O)O)C(C)(C)C=C3CS(=O)(=O)O [Compound 60]	775^b nm	742^b nm	–	–
CC[N+]1=c2cc3c(cc2C(CS(=O)(=O)O)=CC1(C)C)=C(c1n(C)cc[n+]1CCCCC(=O)O)c1cc2c(cc1C3(C)C)N(Cc1ccc(S(=O)(=O)O)cc1S(=O)(=O)O)C(C)(C)C=C2CS(=O)(=O)O [Compound 61]	776^b nm	743^b nm	–	–
Cn1cc[n+](CCCC(=O)O)c1C1=c2cc3c(cc2[Si](C)(C)c2cc4c(cc21)C(CS(=O)(=O)O)=CC(C)(C)N4Cc1ccc(S(=O)(=O)O)cc1S(=O)(=O)O)=[N+](Cc1ccc(S(=O)(=O)O)cc1S(=O)(=O)O)C(C)(C)C=C3CS(=O)(=O)O [Compound 62]	817^b nm	791^b nm	–	–
Cn1cc[n+](CCCC(=O)O)c1C1=c2cc3c(cc2[Si](C)(C)c2cc4c(cc21)C(CS(=O)(=O)O)CC(C)(C)N4Cc1ccc(S(=O)(=O)O)cc1S(=O)(=O)O)=[N+](Cc1ccc(S(=O)(=O)O)cc1S(=O)(=O)O)C(C)(C)CC3CS(=O)(=O)O (stereo not shown) [Compound 63]	776^b nm	752^b nm	–	–
CC[N+]1=c2cc3c(cc2C(CS(=O)(=O)O)=CC1(C)C)=C(c1ccc(C(=O)O)cc1)c1cc2c(cc1C3(C)C)N(Cc1ccc(S(=O)(=O)O)cc1S(=O)(=O)O)C(C)(C)C=C2CS(=O)(=O)O [Compound 64]	697^b nm	667^b nm	–	–
CCN1c2cc3c(cc2C(CS(=O)(=O)O)=CC1(C)C)C(c1ccccc1C(=O)N(C)CCCC(=O)O)=c1cc2c(cc1C3(C)C)=[N+](Cc1ccc(S(=O)(=O)O)cc1S(=O)(=O)O)C(C)(C)C=C2CS(=O)(=O)O [Compound 65]	706^b nm	679^b nm	–	–
CCN1c2cc3c(cc2C(CS(=O)(=O)O)CC1(C)C)C(c1ccccc1C(=O)N(C)CCCC(=O)O)=c1cc2c(cc1C3(C)C)=[N+](Cc1ccc(S(=O)(=O)O)cc1S(=O)(=O)O)C(C)(C)CC2CS(=O)(=O)O (stereo not shown) [Compound 66]	665^b nm	645^b nm	–	–
CN(CCCC(=O)O)C(=O)c1ccccc1C1=c2cc3c(cc2C(C)(C)c2cc4c(cc21)C(CS(=O)(=O)O)=CC(C)(C)N4Cc1ccc(S(=O)(=O)O)cc1S(=O)(=O)O)=[N+](Cc1ccc(S(=O)(=O)O)cc1S(=O)(=O)O)C(C)(C)C=C3CS(=O)(=O)O [Compound 67]	707^b nm	679^b nm	–	–
CN(CCCC(=O)O)C(=O)c1ccccc1C1=c2cc3c(cc2C(C)(C)c2cc4c(cc21)C(CS(=O)(=O)O)CC(C)(C)N4Cc1ccc(S(=O)(=O)O)cc1S(=O)(=O)O)=[N+](Cc1ccc(S(=O)(=O)O)cc1S(=O)(=O)O)C(C)(C)CC3CS(=O)(=O)O (stereo not shown) [Compound 68]	666^b nm	645^b nm	–	–
CN(CCCC(=O)O)C(=O)c1ccccc1C1=C2C=C/C(=[N+](\C)Cc3ccc(S(=O)(=O)O)cc3S(=O)(=O)O)C=C2[Si](C)(C)c2cc(N(C)Cc3ccc(S(=O)(=O)O)cc3S(=O)(=O)O)ccc21 [Compound 69]	680^b nm	658^b nm	–	–
CN(Cc1ccc(S(=O)(=O)O)cc1S(=O)(=O)O)c1ccc2c(c1)[Si](C)(C)C1=C/C(=[N+](/C)Cc3ccc(S(=O)(=O)O)cc3S(=O)(=O)O)C=CC1=C2c1cc(C(=O)O)ccc1C(=O)O [Compound 70]	670^b nm	649^b nm	–	–
CN(CCCC(=O)O)C(=O)c1ccccc1C1=c2cc3c(cc2[Si](C)(C)c2cc4c(cc21)C(CS(=O)(=O)O)=CC(C)(C)N4Cc1ccc(S(=O)(=O)O)cc1S(=O)(=O)O)=[N+](Cc1ccc(S(=O)(=O)O)cc1S(=O)(=O)O)C(C)(C)C=C3CS(=O)(=O)O [Compound 71]	752^b nm	722^b nm	–	–
CC1(C)C=C(CS(=O)(=O)O)c2cc3c(cc2N1Cc1ccc(S(=O)(=O)O)cc1S(=O)(=O)O)[Si](C)(C)c1cc2c(cc1=C3c1cc(C(=O)O)ccc1C(=O)O)C(CS(=O)(=O)O)=CC(C)(C)[N+]=2Cc1ccc(S(=O)(=O)O)cc1S(=O)(=O)O [Compound 72]	740^b nm	711^b nm	–	–

SMILES	λfl ([1]; solvent PBS pH 7.4)	λabs ([2]; solvent PBS pH 7.4)	λfl ([1]; solvent ethanol)	λabs ([2]; solvent ethanol)
CN(CCCC(=O)O)C(=O)c1ccccc1C1=c2cc3c(cc2[Si](C)(C)c2cc4c(cc21)C(CS(=O)(=O)O)CC(C)(C)N4Cc1ccc(S(=O)(=O)O)cc1S(=O)(=O)O)=[N+](Cc1ccc(S(=O)(=O)O)cc1S(=O)(=O)O)C(C)(C)CC3CS(=O)(=O)O (stereo not shown) [Compound 73]	708^b nm	686^b nm	–	–
CC1(C)CC(CS(=O)(=O)O)c2cc3c(cc2N1Cc1ccc(S(=O)(=O)O)cc1S(=O)(=O)O)[Si](C)(C)c1cc2c(cc1=C3c1cc(C(=O)O)ccc1C(=O)O)C(CS(=O)(=O)O)CC(C)(C)[N+]=2Cc1ccc(S(=O)(=O)O)cc1S(=O)(=O)O (stereo not shown) [Compound 74]	698^b nm	675^b nm	–	–
CN(C)c1ccc2c(c1)C(C)(C)c1cc3c(cc1=C2)CCC[N+]=3CS(=O)(=O)O [Compound 75]	–	–	621^a nm	597^a nm
CN(C)c1ccc2c(c1)C(C)(C)c1cc3c(cc1=C2)CCC[N+]=3Cc1ccc(S(=O)(=O)O)cc1S(=O)(=O)O [Compound 76]	622^b nm	596^b nm	–	–
CN(C)c1ccc2c(c1)C(C)(C)c1cc3c(cc1=C2C#N)CCC[N+]=3Cc1ccc(S(=O)(=O)O)cc1S(=O)(=O)O [Compound 77]	751^b nm	730^b nm	–	–
CN(C)c1ccc2c(c1)C(C)(C)c1cc3c(cc1=C2NCCCCCC(=O)O)CCC[N+]=3Cc1ccc(S(=O)(=O)O)cc1S(=O)(=O)O [Compound 78]	609^b nm	463 nm	–	468 nm
CC1(C)c2c(cc3c4c2CCCN4CCC3)C=c2cc3c(cc21)=[N+](Cc1ccc(S(=O)(=O)O)cc1S(=O)(=O)O)CCC3 [Compound 79]	649^b nm	627^b nm	–	–
CC1(C)c2c(cc3c4c2CCCN4CCC3)C(C#N)=c2cc3c(cc21)=[N+](Cc1ccc(S(=O)(=O)O)cc1S(=O)(=O)O)CCC3 [Compound 80]	761^b nm	739^b nm	–	–
CC1(C)c2cc3c(cc2C(NCC(S(=O)(=O)O)S(=O)(=O)O)=c2cc4c(cc21)=[N+](Cc1ccc(S(=O)(=O)O)cc1S(=O)(=O)O)C(C)(C)C=C4CS(=O)(=O)O)CCCN3CCCC(=O)O [Compound 84]	644^b nm	490^b nm	–	–
C[N+](C)=C1C=CC2=C(NC(CCS(=O)(=O)O)C(=O)O)c3cc4c(cc3C(C)(C)C2=C1)N(Cc1ccc(S(=O)(=O)O)cc1S(=O)(=O)O)CCC4 (stereo not shown) [Compound 85]	673^b nm	496^b nm	–	–
CC1(C)c2cc3c(cc2C(NCC(S(=O)(=O)O)S(=O)(=O)O)=c2cc4c(cc21)=[N+](Cc1ccc(S(=O)(=O)O)cc1S(=O)(=O)O)C(C)(C)C=C4CS(=O)(=O)O)C(CS(=O)(=O)O)=CC(C)(C)N3CCCC(=O)O [Compound 86]	660^b nm	502^b nm	–	–
CCN(CS(=O)(=O)O)c1ccc2c(c1)[Si](C)(C)C1=C/C(=[N+](/CC)CS(=O)(=O)O)C=CC1=C2NCCS(=O)(=O)O [Compound 87]	605^b nm	472^b nm	–	–
CCN(CS(=O)(=O)O)c1ccc2c(c1)[Si](C)(C)C1=C/C(=[N+](/CC)CS(=O)(=O)O)C=CC1=C2NCC(S(=O)(=O)O)S(=O)(=O)O [Compound 88]	605^b nm	471^b nm	–	–
CN(Cc1ccc(S(=O)(=O)O)cc1S(=O)(=O)O)c1ccc2c(c1)[Si](C)(C)C1=C/C(=[N+](/C)Cc3ccc(S(=O)(=O)O)cc3S(=O)(=O)O)C=CC1=C2C#N [Compound 89]	763^b nm	746^b nm	–	–
CN(Cc1ccc(S(=O)(=O)O)cc1S(=O)(=O)O)c1ccc2c(c1)[Si](C)(C)C1=C/C(=[N+](/C)Cc3ccc(S(=O)(=O)O)cc3S(=O)(=O)O)C=CC1=C2NCCCC(=O)O [Compound 90]	637^b nm	483^b nm	–	–
CC1(C)C=C(CS(=O)(=O)O)c2cc3c(cc2N1CCCC(=O)O)[Si](C)(C)c1cc2c(cc1=C3)C(CS(=O)(=O)O)=CC(C)(C)[N+]=2CS(=O)(=O)O [Compound 91]	738^b nm	715^b nm	–	–
CC1(C)C=C(CS(=O)(=O)O)c2cc3c(cc2N1CCCC(=O)O)[Si](C)(C)c1cc2c(cc1=C3C#N)C(CS(=O)(=O)O)=CC(C)(C)[N+]=2CCS(=O)(=O)O [Compound 92]	841^b nm	817^b nm	–	–
CC1(C)C=C(CS(=O)(=O)O)c2cc3c(cc2N1CCCC(=O)O)[Si](C)(C)c1cc2c(cc1=C3NCC(S(=O)(=O)O)S(=O)(=O)O)C(CS(=O)(=O)O)=CC(C)(C)[N+]=2CCS(=O)(=O)O [Compound 93]	695^b nm	516^b nm	–	–
